Data from patent US11718600B2, “1,2,3-triazole inhibitors of P97 AAA ATPase activity” (University of Pittsburgh—Of the Commonwealth System of …, priority 2018, dated 2023).

Molecular target: p97 (Homo sapiens, UniProt P55072)
Assay: BioMol Green ATPase assay
Format: biochemical
Details: 200 μM ATP
Source text: Biomol Green (Enzo) is a […] from a biochemical reaction. Because of its high sensitivity, the assay is suitable for monitoring enzyme activities at very early substrate conversions requiring very low amount of enzymes.
The assay procedure used may be the same as in Zhang et al., “Altered cofactor regulation with disease-associated p97/VCP mutations,” Proc. Natl. Acad. Sci. USA, 112(14), E1705-E1714 (2015).
The BioMol Green ATPase assay procedure used was that which was disclosed in Zhang, et al., “Altered cofactor regulation with disease-associated p97/VCP mutations,” Proc. Natl. Acad. Sci. USA, 112(14), E1705-E1714 (2015). Compounds also show activity in a cell-based assay such as the ubiquitin assay.

Sequence of p97 (P55072 whole entry): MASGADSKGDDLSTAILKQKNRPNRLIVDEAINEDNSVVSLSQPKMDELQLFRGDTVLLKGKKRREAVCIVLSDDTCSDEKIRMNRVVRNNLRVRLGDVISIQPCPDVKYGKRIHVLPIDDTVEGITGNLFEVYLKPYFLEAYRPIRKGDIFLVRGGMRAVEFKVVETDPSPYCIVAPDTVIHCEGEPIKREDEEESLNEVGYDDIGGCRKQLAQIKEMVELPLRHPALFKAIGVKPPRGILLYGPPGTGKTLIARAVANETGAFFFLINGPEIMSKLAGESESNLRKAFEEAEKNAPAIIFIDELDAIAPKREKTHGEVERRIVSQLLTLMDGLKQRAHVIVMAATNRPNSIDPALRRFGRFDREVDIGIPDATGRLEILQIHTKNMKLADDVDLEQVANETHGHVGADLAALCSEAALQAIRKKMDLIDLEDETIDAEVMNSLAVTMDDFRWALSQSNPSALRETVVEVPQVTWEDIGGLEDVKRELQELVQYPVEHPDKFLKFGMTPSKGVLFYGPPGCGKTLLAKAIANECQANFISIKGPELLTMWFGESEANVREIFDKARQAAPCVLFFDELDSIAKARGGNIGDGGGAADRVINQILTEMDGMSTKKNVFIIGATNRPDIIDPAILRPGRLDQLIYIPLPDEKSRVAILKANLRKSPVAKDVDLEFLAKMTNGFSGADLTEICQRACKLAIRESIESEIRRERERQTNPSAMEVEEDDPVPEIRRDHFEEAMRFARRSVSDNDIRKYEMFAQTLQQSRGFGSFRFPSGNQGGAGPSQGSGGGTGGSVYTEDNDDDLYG

Compound | IC50 [µM]
CC(C)(C)OC(=O)N1CCN(C(=O)Cn2ncc(-c3cc(F)c(OCc4nnc(SC5C=CCCC5)n4-c4cccnc4)cc3F)n2)CC1 (centres unmarked) [Entry 1] | < 0.05
CC(C)(C)OC(=O)N1CCN(C(=O)Cn2cc(-c3cc(F)c(OCc4nnc(SC5C=CCCC5)n4-c4cccnc4)cc3F)nn2)CC1 (centres unmarked) [Entry 2] | < 1
[2H]C1([2H])C([2H])([2H])C([2H])([2H])C([2H])(Sc2nnc(COc3cc(F)c(-c4cnn(CC(=O)N5CCN(C(=O)OC(C)(C)C)CC5)n4)cc3F)n2-c2cccnc2)C1([2H])[2H] [Entry 3] | < 0.05
[2H]C1([2H])C([2H])([2H])C([2H])([2H])C([2H])(Sc2nnc(COc3cc(F)c(-c4cn(CC(=O)N5CCN(C(=O)OC(C)(C)C)CC5)nn4)cc3F)n2-c2cccnc2)C1([2H])[2H] [Entry 4] | < 1
[2H]C1([2H])C([2H])([2H])C([2H])([2H])C([2H])(Sc2nnc(COc3cc(F)c(-c4cnn(CC(=O)N5CCNCC5)n4)cc3F)n2-c2cccnc2)C1([2H])[2H] [Entry 5] | < 0.05
[2H]C1([2H])C([2H])([2H])C([2H])([2H])C([2H])(Sc2nnc(COc3cc(F)c(-c4cn(CC(=O)N5CCNCC5)nn4)cc3F)n2-c2cccnc2)C1([2H])[2H] [Entry 6] | < 1
CN1CCN(C(=O)Cn2ncc(-c3cc(F)c(OCc4nnc(SC5C=CCCC5)n4-c4cccnc4)cc3F)n2)CC1 (centres unmarked) [Entry 7] | < 0.05
CC(C)(C)OC(=O)N1CCN(CCn2ncc(-c3cc(F)c(OCc4nnc(SC5C=CCCC5)n4-c4cccnc4)cc3F)n2)CC1 (centres unmarked) [Entry 8] | < 0.1
OCCn1ncc(-c2cc(F)c(OCc3nnc(SC4C=CCCC4)n3-c3cccnc3)cc2F)n1 (centres unmarked) [Entry 9] | < 0.05
CN1CCC(NC(=O)OCCn2ncc(-c3cc(F)c(OCc4nnc(SC5C=CCCC5)n4-c4cccnc4)cc3F)n2)CC1 (centres unmarked) [Entry 10] | < 0.05
CNC(=O)OCCn1ncc(-c2cc(F)c(OCc3nnc(S[C@H]4C=CCCC4)n3-c3cccnc3)cc2F)n1 [Entry 11] | < 0.05
CN1CCN(C(=O)OCCn2ncc(-c3cc(F)c(OCc4nnc(S[C@H]5C=CCCC5)n4-c4cccnc4)cc3F)n2)CC1 [Entry 12] | < 0.1
CN1CCN(C(=O)Cn2ncc(-c3cc(F)c(OCc4nnc(S[C@H]5C=CCCC5)n4-c4cccnc4)cc3F)n2)CC1 [Entry 13] | < 0.05
Fc1cc(-c2cnn(CCOCc3ccccc3)n2)c(F)cc1OCc1nnc(SC2C=CCCC2)n1-c1cccnc1 (centres unmarked) [Entry 14] | < 1
OCCn1ncc(-c2cc(F)c(OCc3nnc(S[C@H]4C=CCCC4)n3-c3cccnc3)cc2F)n1 [Entry 15] | < 0.05
CC(C)(C)OC(=O)N1CCN(C(=O)Cn2ncc(-c3cc(F)c(OCc4nnc(S[C@@H]5C=CCCC5)n4-c4cccnc4)cc3F)n2)CC1 [Entry 16] | < 1
CC(C)(C)OC(=O)N1CCN(C(=O)Cn2ncc(-c3cc(F)c(OCc4nnc(S[C@H]5C=CCCC5)n4-c4cccnc4)cc3F)n2)CC1 [Entry 17] | < 0.05
OCCn1cc(-c2cc(F)c(OCc3nnc(SC4C=CCCC4)n3-c3cccnc3)cc2F)nn1 (centres unmarked) [Entry 18] | < 1
CN1CCC(NC(=O)OCCn2cc(-c3cc(F)c(OCc4nnc(SC5C=CCCC5)n4-c4cccnc4)cc3F)nn2)CC1 (centres unmarked) [Entry 19] | < 1
COC(=O)Cn1ncc(-c2cc(F)c(OCc3nnc(SC4C=CCCC4)n3-c3cccnc3)cc2F)n1 (centres unmarked) [Entry 20] | < 0.05
O=C(O)Cn1ncc(-c2cc(F)c(OCc3nnc(SC4C=CCCC4)n3-c3cccnc3)cc2F)n1 (centres unmarked) [Entry 21] | < 0.1
CN1CCC(NC(=O)Cn2ncc(-c3cc(F)c(OCc4nnc(SC5C=CCCC5)n4-c4cccnc4)cc3F)n2)CC1 (centres unmarked) [Entry 22] | < 0.05
COC(=O)Cn1ncc(-c2cc(F)c(OCc3nnc(S[C@H]4C=CCCC4)n3-c3cccnc3)cc2F)n1 [Entry 23] | < 0.05
